“Also recorded” adds a separate entry of the source.
What was measured:
[1] = test system: primary bone marrow-derived macrophages; assay: NLRP3 inflammasome and CHOP expression in primary bone marrow-derived macrophages; assay type: cell-based; conditions: for NLRP3 and CHOP with LPS stimulation: LPS challenge; for NLRP3 expression, basal unstimulated: immunoblot
Text: FIGS. 46A-46D. […] Chronic inflammation in dystrophic muscle, due to the persistent muscle damage with sustained degeneration and regeneration cycles, is a significant component of the pathogenic characteristics of muscular dystrophy contributing to muscle wasting. We thus determined potential ameliorative effects of CHX and CM002 on muscle inflammation in the mdx mice.

[2] = test system: primary preadipocytes; assay: Adipogenic differentiation of primary preadipocytes; assay type: cell-based, mice; conditions: for mature adipocyte formation: 0.5 and 1 μM
Procedure: Primary preadipocyte isolation and adipogenic induction. The stromal vascular fraction containing preadipocytes were isolated from subcutaneous fat pads, as described (Chatterjee, Nam, Guo et al., 2013). Briefly, fat pads were cut into pieces and digested using 0.1% collagenase Type 1 with 0.8% BSA at 37° C. in a horizontal shaker for 60 minutes, passed through Nylon mesh and centrifuged to collect the pellet containing the stromal vascular fraction with preadipocytes. Preadipocytes were cultured in F12/DMEM supplemented with bFGF (2.5 ng/ml), expanded for two passages and subjected to differentiation in 6-well plates at 90% confluency. Adipogenic differentiation was induced for 2 days in medium containing 10% FBS, 1.6 μM insulin, 1 μM dexamethasone, 0.5 mM IBMX, 0.5 μM rosiglitazone before switching to maintenance medium for 4 days with insulin only. Nobiletin at indicated concentrations were added for the entire differentiation time course. Oil-red-O and Bodipy staining. These stainings for neutral lipids during adipogenic differentiation were performed as previously described (Nam et al., 2015). Briefly, for oil-red-O staining, cells were fixed using 10% formalin and incubated using 0.5% oil-red-O solution for 1 hour. Bodipy 493/503 was used at 1 mg/L together with DAPI for 15 minutes, following 4% paraformaldehyde fixation and permeabilization with 0.2% triton-X100. Immunoblot analysis. Total protein was extracted using lysis buffer containing 3% NaCl, 5% Tris-HCl, 10% Glycerol, 0.5% Triton X-10 in MilliQ water with protease inhibitor cocktail. 20-40 μg of total protein was resolved on 10% SDS-PAGE gels followed by immunoblotting on PVDF membranes (Bio-rad). Membranes were developed by chemiluminescence (SuperSignal West Pico, Pierce Biotechnology) and signals were obtained via a chemiluminescence imager (Amersham Imager 680, GE Biosciences).

[3] = test system: mdx mouse primary myoblasts; assay: MTT cell viability of mdx mouse primary myoblasts; assay type: cell-based
Procedure: (§1) Cells were seeded at 5×10^4 concentration in 100 μl culture medium into 96 wells flat bottom microplates and treated after 24 h with desired compounds and controls. After desired incubation periods, cells were treated with MTT labeling reagent 1× (MTT (3-[4,5-dimethylthiazol-2-yl]-2,5-diphenyltetrazolium bromide labeling reagent, 5 mg/ml in PBS, Roche Cell Proliferation Kit I (MTT)) and Solubilization buffer 1× (10% SDS in 0.01 M HCl and left overnight. Next morning absorbance was measured at 570 nm and 700 nm on microplate (ELISA) reader (TECAN infinite M200pro). The mean and standard deviation values were calculated for each well and graphed.
(§2) FIGS. 41A-41D. Effect of Chlorhexidine (CHX) and CM002 treatment on viability of mouse and human myoblasts. To determine potential toxic effects of CHX and CM002, we treated mouse C2C12 myoblast cell line with increasing concentrations from 0.2-5 μM for 48 hours and determined cell viability using the MTT assay (FIG. 41A). […] Considering the inflammatory milieus in dystrophic muscles, we further tested the tolerance of myoblasts to these molecules in the presence of inflammatory stimuli, a cytokine cocktail (CC) consisted of 10 ng/mL IL-1β, 100 ng/mL IFN-γ and 25 ng/mL of TNF-α (FIG. 41B). […] Lastly, human primary myoblasts derived from Duchene Muscular Dystrophy (DMD) patients were used to determine their tolerance to these compounds.

[4] = test system: human primary myoblasts derived from DMD patients; assay: MTT cell viability of human DMD primary myoblasts; assay type: cell-based
Procedure: as §1, §2

[5] = test system: C2C12 myoblasts; assay: Myogenic differentiation of C2C12 myoblasts; assay type: cell-based, mouse; conditions: for MyHC-positive mature myotubes (immunofluorescence): C2C12 differentiation day 5-7
Procedure: Pictures were taken every day to monitor morphological progression, and proteins and RNA samples were collected on days indicated.
C2C12, C2C12 Bmal1 KD and C2C12 Scrambled control (SC) myoblasts were seeded at Day −1 at 2×105 concentration on 12 wells plates and maintained in 10% FBS until 80% confluency and treated with indicated compounds and controls in 2% FBS DMEM media to induce differentiation on Day 0. On days 3, 5 and 7 cells were fixed with 4% paraformaldehyde (from 37% Formaldehyde Baker Analyzed) and kept at 4° C. in PBS. Cells were permeabilized with Permeabilization solution of 0.5% Triton X-100 (Fisher Bioreagents CN: 9002-93-1) in PBS and blocked with Blocking solution of 1% BSA (Fisher Bioreagents CN:9048-46-8) in PBS. Primary antibodies were diluted in Washing solution of 0.01% Triton X-100 (Fisher Bioreagents CN: 9002-93-1) in PBS and left overnight at 4° C. Cells were then incubated with secondary antibodies in Washing solution at room temperature for 1 h. 1 μg/ml 4′,6′-diamidine-2′-phenylindole dihydrochloride (DAPI) was used to label for nuclei. […] To quantify the proliferation of myoblast, when needed, cells were treated with 1 μg/ml of EdU for 3 h before fixation. Detection of EdU was performed with Click-iT EdU Alexa Fluor 488 Imaging Kit before applying the immunofluorescence staining as described above.

[6] = test system: C3H10T1/2 cells; assay: Clock and Wnt gene/protein expression in C3H10T1/2 cells; assay type: cell-based; conditions: for β-catenin protein level during adipogenic differentiation: 1 μM, before and after adipogenic induction; for mRNA levels of Wnt ligands and receptors / clock gene expression: 10T1/2 cells; for mRNA levels of Wnt ligands and receptors: 6 hours; for clock gene expression: RT-qPCR
Procedure: Immunoblot analysis. Total protein was extracted using lysis buffer containing 3% NaCl, 5% Tris-HCl, 10% Glycerol, 0.5% Triton X-10 in MilliQ water with protease inhibitor cocktail. 20-40 μg of total protein was resolved on 10% SDS-PAGE gels followed by immunoblotting on PVDF membranes (Bio-rad). Membranes were developed by chemiluminescence (SuperSignal West Pico, Pierce Biotechnology) and signals were obtained via a chemiluminescence imager (Amersham Imager 680, GE Biosciences).
RNA extraction and RT-qPCR analysis. PureLink RNA Mini Kit (Invitrogen) were used to isolate total RNA from cells. cDNA was generated using Revert Aid RT kit (ThermoFisher) and quantitative PCR was performed using SYBR Green Master Mix (Thermno Fisher) in triplicates on ViiA 7 Real-Time PCR System (Applied Biosystems). Relative expression levels were determined using the comparative Ct method with normalization to 361B4 as internal control.

SMILES: [H]/N=C(\N/C(=N/[H])NCCCCCCNC(=N)NC(=N)Nc1ccc(Cl)cc1)Nc1ccc(Cl)cc1 [CHX, chlorhexidine]
- concentration inducing CHOP (ER stress marker) [1]: ≥ 1000 nM
- NLRP3 and CHOP with LPS stimulation [1]: failed to inhibit NLRP3 inflammasome and displayed stimulatory effect at high concentrations accompanied with CHOP induction
- NLRP3 expression, basal unstimulated [1]: able to attenuate its expression
- FASN, terminal differentiation marker ([2]; day 6 of differentiation): markedly attenuated the terminal differentiation marker of adipocytes, FASN
- adipogenic factor induction ([2]; day 6 of differentiation): only resulted in a tendency toward suppressing adipogenic factor induction
- mature adipocyte formation ([2]; six days of differentiation): dose-dependent, marked effect on suppressing mature adipocyte formation
- concentration causing cell death ([3]; with cytokine cocktail): ≥ 500 nM
- concentration up to which viability is not significantly compromised ([4]; with cytokine cocktail): up to 5 μM
- myotube hypertrophy ([5]; 0.5 μM, Day 7): induced notable myotube hypertrophy
- morphological progression of myotube formation ([5]; 2% serum differentiation, phase-contrast): markedly accelerated the morphological progression of myotube formation
- induction of Myf5 and eMyhc in Bmal1-deficient myoblasts ([5]; BMKD myoblasts): loss of CHX induction of Myf5 and eMyhc
- differentiation of Bmal1 shRNA (BMKD) myoblasts ([5]; BMKD vs SC): failed to augment BMKD myoblast differentiation
- MyHC-positive mature myotubes (immunofluorescence) [5]: increased numbers of MyHC-positive mature myotubes
- effective concentration range, pro-myogenic activities ([5]; C2C12 myoblasts): 0.2 to 0.5 µM
- toxicity during differentiation ([5]; CHX at 2 and 5 μM): appeared to be toxic to myoblasts with cell death during differentiation
- Myf5, Myod1 and eMyhc expressions ([5]; RT-qPCR): significantly induced by 0.5 μM CHX with a tendency toward higher expression 0.2 μM
- Myf5 and Myogenin proteins ([5]; day 3 and day 5 of differentiation, immunoblot): early induction of myogenic factors Myf5 and Myogenin proteins
- β-catenin protein level during adipogenic differentiation [6]: sufficient to re-activate the lost b-catenin protein level during adipogenic differentiation
- mRNA levels of Wnt ligands and receptors [6]: induced the mRNA levels of Wnt1, Wnt10a, Fzd2, Fzd5
- clock gene expression [6]: inductions of Pers and Crys

SMILES: CCCCCC/C=N/C(=N)NC(=N)Nc1ccc(Cl)cc1 [CM002]
- NLRP3 and CHOP with LPS stimulation [1]: suppressed NLRP3 in the presence of LPS without inducing CHOP
- NLRP3 expression, basal unstimulated [1]: able to attenuate its expression
- reduction of adipocyte formation in Bmal1-deficient (BMKO) preadipocytes ([2]; six days of differentiation): severely blunted
- mature adipocyte formation ([2]; six days of differentiation): strongly inhibited their differentiation; also recorded: dose-dependent reductions by CM002 at 0.5 and 1 μM concentration
- adipocyte formation, compound given after initial two days of adipogenic induction ([2]; vs presence throughout differentiation): still retained its efficacy of blocking adipocyte formation largely to the same extent
- concentration up to which cells remain viable ([3]; mdx, mouse): up to 1 μM
- cell death at 2.5 μM ([3]; mdx, mouse, 2.5 μM): significantly less cell death at 2.5 μM
- cell death at 5 μM ([4]; human, 5 μM): displaying sensitivity to cell death by CM002 treatment at this concentration
- MyHC-positive mature myotubes (immunofluorescence) [5]: enhanced differentiation induced by 0.5 μM CM002 than CHX with strongest effect on promoting myotube formation observed at CM002 at 1 μM
- Myogenesis ([5]; Table 1 summary of CHX analogs): Enhanced
- β-catenin protein level during adipogenic differentiation [6]: partially reverse the decline of β-catenin level at the differentiated state
- mRNA levels of Wnt ligands and receptors [6]: significant induction of Wnt ligands including Wnt1 and Wnt10a transcripts
- clock gene expression [6]: induction of core clock transcription activators, CLOCK and Bmal1, together with up-regulation of its direct transcriptional target within the molecular clock loop, Nr1d1

Reference: patent US20250100962A1 (CITY OF HOPE, priority 2023, published 2025)
